Data as given in patent US20250318997A1, “COMPOSITIONS AND METHODS FOR PREVENTING DENTAL CARIES” (THE TRUSTEES OF THE UNIVERSITY OF PENNSYLVANIA, priority 2022, published 2025).

Key:
[1] = Stability of SnF2 in aqueous solution / sodium acetate buffer (photographs, UV-vis); conditions: SnF2 alone, 0.1 M sodium acetate buffer pH 5.5; FIG. 2B
Excerpt: It is noteworthy that SnF2 has limited stability in aqueous solutions owing to its high susceptibility to hydrolysis and oxidation, requiring chemical additives (e.g., chelating agents) or water removal, which can reduce fluoride bioavailability. […] To further investigate the stability of SnF2 in the presence of Fer, SnF2 (250 ppm of F) was mixed with increasing amounts of Fer in 0.1 M sodium acetate buffer at different pH values.
The peak at 4.0-4.2 ppm (denoted as “a”) is attributed to the protons of the carboxymethyl moieties, as determined previously. […] Note that similar ^1H NMR studies of SnF2 and Fer are not possible due to the superparamagnetic nature of Fer interfering with ^1H NMR measurements.
The Fer formulation also contains mannitol, which is an antioxidant. Since antioxidants can prevent the oxidation of SnF2, SnF2 was added to various amounts of mannitol (1-10 mg/ml).

S. mutans biofilm = assay: In vitro biofilm model on saliva-coated hydroxyapatite disc: viable cells (CFU) and biomass (dry weight); format: cell-based, Streptococcus mutans UA159
Procedure: Antibiofilm activity was evaluated using different concentrations of Fer and SnF2 in the presence of H2O2 using the saliva-coated hydroxyapatite disc (tooth enamel mimic) model in the presence of sucrose. Initially, Fer (1 mg of Fe/ml) was mixed with various concentrations of SnF2 (0-250 ppm of F), and the number of viable cells and biomass were determined.
Biofilms were formed using the saliva-coated hydroxyapatite disc (sHA) model as described elsewhere. Streptococcus mutans UA159, a proven virulent and well-characterized cariogenic pathogen, were grown in ultra-filtered (10 kDa, cutoff; Millipore, Billerica, MA) tryptone-yeast extract (UFTYE) broth at 37° C. and 5% CO2 to mid-exponential phase. Briefly, HA discs (surface area of 2.7±0.2 cm^2; Clarkson Chromatography Inc., South Williamsport, PA) were vertically suspended in 24-well plates using a custom-made wire disc holder and coated with filter-sterilized human saliva for 1 h at 37° C. Each sHA disc was inoculated with ˜2×10^5 CFU of S. mutans per ml in UFTYE containing 1% sucrose at 37° C. and 5% CO2. Topical treatment of Fer and SnF2 or vehicle control was performed twice daily for 10 min at 0, 6, 19, and 29 h. The culture medium was changed twice daily (at 19 h and 29 h). At the end of the experimental period (43 h), the biofilms were placed in 2.8 ml of H2O2 (1%, v/v) for 5 min. After H2O2 exposure, the biofilms were removed and homogenized via bath sonication followed by probe sonication (at an output of 7 W for 30 s). The homogenized suspension was serially diluted and plated onto blood agar plates using an automated EddyJet Spiral Plater (IUL, SA, Barcelona, Spain). The numbers of viable cells in each biofilm were calculated by counting CFU. The remaining suspension was centrifuged at 5500 g for 10 min, the resulting cell pellets were then washed, oven-dried, and weighed. SnF2 and NaF treatment groups were performed according to the same procedure.

[2] = Hydroxyl radical production by PL using coumarin; conditions: pH 4.5, H2O2; FIGS. 3F, 15
Procedure: Comparison of hydroxyl radical (·OH) production: ·OH generated by Fer and Fer+SnF2 in 0.1 M sodium acetate buffer (pH 4.5) was compared by PL technique using coumarin (Sigma-Aldrich) as a ·OH trapping molecule. First, stock solution of Fer (0.5 mg of Fe/ml) with or without SnF2 (0.5 mg/ml) was incubated in 0.1 M sodium acetate buffer (pH 4.5) for 1 h. Afterward, Fer (20 μg of Fe/ml) with or without SnF2 (20 μg/ml) was mixed with coumarin (0.1 mM) in a 10 mm path length cuvette, and then H2O2 (1%, v/v) was added to the reaction mixture to initiate the reaction. The PL intensity was recorded at 452 nm at different incubation times with an excitation wavelength of 332 nm. For the control, all the experimental conditions were the same, except that the testing samples were not used.

[3] = TMB colorimetric assay for peroxidase-like (catalytic) activity / ROS; conditions: for effect of the salt on the catalytic activity of Fer: salt 20 (or 30) μg/ml, Fer 20 μg of Fe/ml, pH 4.5, FIGS. 4A-4C
Excerpt: To explore whether SnF2 could produce ROS, the 3,3′,5,5′-tetramethylbenzidine (TMB) colorimetric assay was used for peroxidase-like activity following a previously published protocol, with some modifications. TMB is a chromogenic compound that yields a blue color upon oxidation with an absorption peak at 652 nm in the presence of H2O2.
ROS measurement using 3,3′,5,5′-tetramethylbenzidine (TMB) assay: The catalytic activity of Fer+SnF2 was investigated by a colorimetric assay using TMB (Sigma-Aldrich) as a probe, which generates a blue color in the presence of H2O2 after reacting with ROS. Briefly, the stock solution of TMB was made in DMF (25 mg/ml). Fer (0.5 mg of Fe/ml) and SnF2 (0.5 mg/ml, Sigma-Aldrich) were incubated (separately or combined) at room temperature in 0.1 M of sodium acetate buffer (pH 4.5) for 1 h. Afterward, 40 μl of the testing sample (Fer, SnF2, or Fer+SnF2) and 4 μl of TMB (100 μg) were added into 922 μl of 0.1 M sodium acetate buffer (pH 4.5), and absorbance was recorded at 652 nm. Then, 34 μl of H2O2 (1%, v/v) was added. After 10 min additional incubation in the dark, catalytic activities was monitored at 652 nm. For the control, 40 μl of the buffer solution was taken instead of the testing sample. To examine the effect of DMSO, a quencher of hydroxyl radical (·OH), various amounts of DMSO (0-10%) were used. The effect of pH on the catalytic activity of the combined treatment of Fer+SnF2 was determined at three different pH values (4.5, 5.5, and 6.5), as described above. The comparison of the catalytic activity of Fer+NaF and Fer+SnF2 was also conducted using the same protocol as described above, except after adding H2O2, the reaction mixture was incubated only for 5 min.
Subsequently, 40 μl of the combined mixture of Fer (20 μg of Fe) and BaF2 (20 or 30 μg) and 4 μl of TMB (100 μg) were mixed into 922 μl of 0.1 M sodium acetate buffer (pH 4.5). Afterward, H2O2 (1%) was added. Finally, the absorbance of TMB was monitored at 652 nm after 5 min of incubation. In a similar way, the catalytic activity of SnCl2 (final concentration 20 μg/ml, Sigma-Aldrich) was also investigated. The effect of incubation time on the catalytic activity was investigated after incubating Fer and SnF2 for a predetermined time.
Additionally, the catalytic activity of the released iron and nanoparticle pellet was investigated at pH 4.5 via TMB assay.

[4] = Stability of Fer/SnF2 with citric acid after 1 month at room temperature (photographs, hydrodynamic diameter); format: physicochemical
Procedure: FIG. 21 provides photographs of Fer+SnF2 when mixed with various amounts of citric acid after 1 month incubation at room temperature.

Compound: [F][Sn][F] [SnF2, stannous fluoride]
- appearance of SnF2 solution [1]: Immediate aggregation
- growth of S. mutans (bacterial viability) (S. mutans biofilm; 1000 ppm of F, compared with NaF, FIG. 9A): significantly inhibit the growth of S. mutans
- biomass (S. mutans biofilm; 1000 ppm of F, compared with NaF, FIG. 9B): reduce biomass
- biomass (S. mutans biofilm; SnF2 250 ppm of F alone, FIG. 1D): substantially reduce biomass
- ·OH production (PL intensity of 7-hydroxycoumarin at 452 nm) [2]: did not produce a noticeable amount of ·OH
- ROS production / catalytic activity (TMB absorption at 652 nm) ([3]; pH 4.5, H2O2, FIGS. 3A, 3B): did not produce a noticeable amount of ROS
- effect of post-mixed SnF2 on the catalytic activity of Fer ([3]; post-mixed, not pre-mixed and incubated, FIG. 20): reduced the catalytic activity of Fer

Compound: [Cl][Sn][Cl] [SnCl2]
- effect of the salt on the catalytic activity of Fer [3]: enhanced the catalytic activity of Fer

Compound: O=C(O)CC(O)(CC(=O)O)C(=O)O [citric acid]
- amount of citric acid that improves the stability of the Fer/SnF2 formulation [4]: ≥ 125 µg/mL

Compound: [F-].[Na+] [NaF, sodium fluoride]
- effect of the salt on the catalytic activity of Fer [3]: Neither NaF nor BaF2 increased the catalytic activity of Fer

Compound: [Ba+2].[F-].[F-] [BaF2, barium fluoride]
- effect of the salt on the catalytic activity of Fer [3]: Neither NaF nor BaF2 increased the catalytic activity of Fer
